According to patent US20060223875A1, “Methods and compositions for production, formulation and use of 1-aryl-3-azabicyclo[3.1.0]hexanes” (priority 2005, published 2006):
Where two headings read alike, the source gives them in different places.

Assays:
[1] = target: serotonin (5-HT) transporter (Rattus norvegicus, UniProt P31652); test: Inhibition of [3H]5-HT uptake in rat whole brain synaptosomes; format: biochemical
Description: (§1) The effects of 1-aryl-3-azabicyclo[3.1.0]hexanes of the invention for inhibiting transport of norepinephrine (NE) and/or dopamine (DA) and/or serotonin (5-HT) were evaluated using preparations of synaptosomes from different regions of the rat brain according to previously-reported techniques (Perovic and Muller, 1995, Janowsky et al., 1986). The subject assay methods are art-accepted models for generally assessing and predicting activities of drugs that modulate biogenic amine transport in mammals.
(§2) Whole brains were obtained from normal rats, and synaptosomal preparations were made from either whole brain (5-HT), striatum (DA) or hypothalamus (NE) by gentle disruption in 10 volumes (w/v) of 0.32 M sucrose (0-4° C.) using a Teflon-glass homogenizer. The homogenate was then centrifuged at 1000×g for 10 min. The supernatant was retained and centrifuged at 23000 g for 20 min. The resulting pellet was gently resuspended in 200 volumes of 0.32 M sucrose (0-4° C.) using a teflon-glass homogenizer. Aliquots (250 μL) of this preparation were added to tubes, along with 0.2 μCi/mL of [^3H]5-HT, [^3H]DA, or [^3H]NE, 200 μL of selected 1-aryl-3-azabicyclo[3.1.0]hexane test compounds (to yield final concentrations of 100 nM, 300 nM, 1 μM, 3 μM, 10 μM, 30 μM or 100 μM) and 1 mL of Krebs-Ringer bicarbonate buffer (pH 7.4). The mixtures were incubated for either 15 (DA and 5-HT uptake) or 20 (NE uptake) minutes at 37° C. At the end of this period, the assay was terminated by rapid filtration over Whatman GF/C glass fiber filters. The filters were rinsed 3 times with 4 ml of Krebs-Ringer bicarbonate buffer (0-4° C.), and the radioactivity retained on the filters was measured by liquid scintillation spectrometry. The results of these assays are shown in Table 3, below, which indicates, for each of the exemplary, aza-substituted compounds, the structure of the substituent, and levels of observed uptake inhibition for each of the indicated neurotransmitters. Also provided in the table is a multi-target “inhibition profile”, expressing a ratio of observed inhibition for each of the aza-substituted bicifadine across a panel of the three indicated neurotransmitters.

[2] = target: dopamine (DA) transporter (Rattus norvegicus, UniProt P23977); test: Inhibition of [3H]DA uptake in rat striatum synaptosomes; format: biochemical
Description: as §1, §2

[3] = orally administered single dose; 150 mg bicifadine, 650 mg aspirin; cited from earlier work
[4] = target: norepinephrine (NE) transporter (Rattus norvegicus, UniProt Q9WTR4); test: Inhibition of [3H]NE uptake in rat hypothalamus synaptosomes; format: biochemical
Description: as §1, §2

[5] = tested on: reuptake of norepinephrine, serotonin, and dopamine; details: cited from earlier work
[6] = dental surgery patients; cited from earlier work
[7] = rat whole brain synaptosomes, [3H]5-HT, 15 min, 37° C., read-out: Inhibition of 5-HT Uptake (IC50)
[8] = rat striatum synaptosomes, [3H]DA, 15 min, 37° C., read-out: Inhibition of DA Uptake (IC50)
[9] = rat hypothalamus synaptosomes, [3H]NE, 20 min, 37° C., read-out: Inhibition of NE Uptake (IC50)

Chain of norepinephrine (NE) transporter (Q9WTR4 1-597): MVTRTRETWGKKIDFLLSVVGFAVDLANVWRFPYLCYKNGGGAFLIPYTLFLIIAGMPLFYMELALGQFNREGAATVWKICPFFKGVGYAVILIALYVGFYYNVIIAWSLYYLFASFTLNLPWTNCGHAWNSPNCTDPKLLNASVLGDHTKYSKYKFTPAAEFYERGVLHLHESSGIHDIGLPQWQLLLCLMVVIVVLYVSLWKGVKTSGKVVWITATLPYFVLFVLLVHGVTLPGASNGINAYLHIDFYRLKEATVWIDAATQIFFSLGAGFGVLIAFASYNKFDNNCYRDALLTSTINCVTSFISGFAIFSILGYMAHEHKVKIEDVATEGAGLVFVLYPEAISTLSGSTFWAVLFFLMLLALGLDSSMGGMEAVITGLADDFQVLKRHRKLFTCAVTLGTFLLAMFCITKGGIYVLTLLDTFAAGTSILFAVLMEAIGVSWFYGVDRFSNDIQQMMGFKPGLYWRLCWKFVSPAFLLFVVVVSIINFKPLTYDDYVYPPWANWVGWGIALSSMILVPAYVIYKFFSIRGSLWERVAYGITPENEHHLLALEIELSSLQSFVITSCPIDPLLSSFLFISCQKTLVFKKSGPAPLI
Chain of serotonin (5-HT) transporter (P31652 whole entry): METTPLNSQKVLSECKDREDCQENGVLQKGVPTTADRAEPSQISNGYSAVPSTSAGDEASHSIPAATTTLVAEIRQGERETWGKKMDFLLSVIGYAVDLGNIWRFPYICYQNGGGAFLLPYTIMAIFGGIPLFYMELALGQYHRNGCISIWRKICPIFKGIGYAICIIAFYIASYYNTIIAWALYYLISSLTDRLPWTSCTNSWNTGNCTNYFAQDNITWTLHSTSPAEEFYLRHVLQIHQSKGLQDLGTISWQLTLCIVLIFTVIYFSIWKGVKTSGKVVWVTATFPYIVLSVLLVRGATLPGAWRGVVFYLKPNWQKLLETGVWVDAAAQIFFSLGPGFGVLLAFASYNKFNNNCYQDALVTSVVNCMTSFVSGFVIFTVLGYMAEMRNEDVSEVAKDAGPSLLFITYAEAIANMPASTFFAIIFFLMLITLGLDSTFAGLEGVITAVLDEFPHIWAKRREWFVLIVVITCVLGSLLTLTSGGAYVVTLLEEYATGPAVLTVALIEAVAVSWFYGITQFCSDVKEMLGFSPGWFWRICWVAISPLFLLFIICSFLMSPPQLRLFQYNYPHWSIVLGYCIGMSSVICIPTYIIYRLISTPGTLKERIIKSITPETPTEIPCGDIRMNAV
Chain of dopamine (DA) transporter (P23977 whole entry): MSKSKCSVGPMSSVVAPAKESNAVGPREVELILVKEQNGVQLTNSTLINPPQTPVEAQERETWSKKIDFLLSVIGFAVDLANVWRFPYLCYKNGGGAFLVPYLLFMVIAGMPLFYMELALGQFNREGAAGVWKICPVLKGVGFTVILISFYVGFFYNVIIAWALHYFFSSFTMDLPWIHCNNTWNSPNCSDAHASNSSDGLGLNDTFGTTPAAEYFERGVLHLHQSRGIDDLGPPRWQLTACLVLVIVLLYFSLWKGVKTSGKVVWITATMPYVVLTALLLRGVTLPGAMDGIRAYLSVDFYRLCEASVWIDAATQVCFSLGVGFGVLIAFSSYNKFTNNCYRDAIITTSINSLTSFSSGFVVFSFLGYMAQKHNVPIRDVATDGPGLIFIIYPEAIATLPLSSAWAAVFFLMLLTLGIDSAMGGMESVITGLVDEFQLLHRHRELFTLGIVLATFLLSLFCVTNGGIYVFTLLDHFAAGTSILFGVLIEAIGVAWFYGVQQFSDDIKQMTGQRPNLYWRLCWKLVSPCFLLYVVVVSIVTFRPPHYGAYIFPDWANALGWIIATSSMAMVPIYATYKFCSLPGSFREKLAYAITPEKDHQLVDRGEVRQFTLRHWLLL

SMILES | IC50 [1, 7] [nM] | IC50 [2, 8] [nM] | IC50 [4, 9] [nM] | further results
CN1CC2CC2(c2ccc(CN)cc2)C1 (stereo not shown) [CH3,4-CH2NH2, (4-(3-Methyl-3-aza-bicyclo[3.1.0]hexan-1-yl)phenyl)methanamine] | 7400 | 8500 |  | 
Cc1ccc(C23CC2CN(CC(F)(F)F)C3)cc1 (stereo not shown) [C2H2F3,4-CH3] | 25000 | 48000 |  | 
CC(=O)Oc1ccccc1C(=O)O [aspirin] |  |  |  | analgesic activity compared to placebo [3]: Significant analgesic activity
CCCN1CC2CC2(c2ccc(C)cc2)C1 (stereo not shown) [n-C3H7,4-CH3, 3-Propyl-1-p-tolyl-3-aza-bicyclo[3.1.0]hexane] | 760 | 2700 | 1400 | 
CN1CC2CC2(c2cccc(Cl)c2)C1 (stereo not shown) [CH3,3-Cl, 1-(3-Chlorophenyl)-3-methyl-3-aza-bicyclo[3.1.0]hexane] |  |  |  | IC50 [4]: 83 nM; IC50 [1]: 270 nM; IC50 [2]: 1300 nM
Cl.Clc1ccc(C23CNCC2C3)cc1Cl (stereo not shown) [1-(3,4-dichlorophenyl)-3-azabicyclo[3.1.0]hexane hydrochloride] |  |  |  | inhibition of reuptake of norepinephrine, serotonin, and dopamine [5]: inhibit reuptake of all three of these biogenic amines
COCCN1CC2CC2(c2ccc(C)cc2)C1 (stereo not shown) [C3H7O, 4-CH3, 3-(2-Methoxyethyl)-1-p-tolyl-3-aza-bicyclo[3.1.0]hexane] | 8000 | 10000 | 6500 | 
Cc1ccc(C23CC2CN(C(C)(C)C)C3)cc1 (stereo not shown) [t-C4H9,4-CH3] | 7600 | 7300 | 2700 | 
Cc1ccc(C23CC2CN(C(C)C)C3)cc1 (stereo not shown) [i-C3H7,4-CH3, 3-Isopropyl-1-p-tolyl-3-aza-bicyclo[3.1.0]hexane] | 170 | 610 | 230 | 
Cc1ccc(C23CC2CN(C)C3)cc1 (stereo not shown) [CH3,4-CH3, 3-Methyl-1-p-tolyl-3-aza-bicyclo[3.1.0]hexane] |  |  |  | IC50 [4]: 150 nM; IC50 [1]: 190 nM; IC50 [2]: 960 nM
CCN1CC2CC2(c2ccc(C)cc2)C1 (stereo not shown) [C2H5,4-CH3, 3-Ethyl-1-p-tolyl-3-aza-bicyclo[3.1.0]hexane] |  |  |  | IC50 [4]: < 100 nM; IC50 [1]: 240 nM; IC50 [2]: < 100 nM
CN1CC2CC2(c2ccc(F)cc2)C1 (stereo not shown) [CH3,4-F, 1-(4-Fluorophenyl)-3-methyl-3-aza-bicyclo[3.1.0]hexane] |  |  |  | IC50 [4]: 170 nM; IC50 [1]: 3400 nM; IC50 [2]: 3800 nM
CN1CC2CC2(c2ccc(C(F)(F)F)cc2)C1 (stereo not shown) [CH3,4-CF3, 3-Methyl-1-(4-trifluoromethylphenyl)-3-aza-bicyclo[3.1.0]hexane] | 130 |  | 2600 | 
Cc1ccc(C23CNCC2C3)cc1.Cl (stereo not shown) [bicifadine, 1-p-Tolyl-3-aza-bicyclo[3.1.0]hexane hydrochloride, reference compound] | 130 | 1300 | 130 | analgesic activity compared to placebo [3]: Significant analgesic activity; analgesia relative to codeine and tramadol [6]: analgesia comparable to the narcotic, codeine and the narcotic-like agent tramadol
